In publication PMC4016240, “Flavonoids with α-glucosidase inhibitory activities and their contents in the leaves of Morus atropurpurea” (Chinese Medicine, 2013):

Molecular target: T1, yeast α-glucosidase (Saccharomyces cerevisiae, UniProt P53341)
T1 construct: purchased Sigma-Aldrich
Assay: microplate-based α-glucosidase inhibition assay (pNPG substrate)
Format: biochemical, Saccharomyces cerevisias
Settings: pH 6.8, 37°C, 30 min, means ± SD, n = 3
From the text: Acetonitrile (HPLC grade) and acetic acid (HPLC grade) were purchased from Merck (Darmstadt, Germany), and methanol (AR grade) was purchased from Kaitong (Tianjin, China). Sodium carbonate was purchased from BDH Laboratory Supplies (Poole, Dorset, UK). α-Glucosidase type 1 ([…] from Saccharomyces cerevisias) and 4-nitrophenyl α-D-glucopyranoside (pNPG) were purchased from Sigma-Aldrich (St. Louis, MO, USA). Ultra-pure water was purified using a Millipore Milli Q-Plus system (Billerica, MA, USA). […] Silica gel (200–300 mesh) was purchased from Qingdao Haiyang Chemical Co. Ltd. (Qingdao, China). Macroporous absorption resin (D101) was purchased from Haiguang Chemical Industrial Co. (Tianjin, China). Sephadex LH-20 was purchased from GE Healthcare Bio-Sciences AB (Uppsala, Sweden), and the Millex® nylon membrane syringe filter was purchased from Millipore (Billerica, MA, USA).
The yeast α-glucosidase inhibitory activities of the four flavonoids were determined by a microplate-based method with a slight modification. […] The 4-nitrophenol absorption was measured at 405 nm. […] The inhibitory activity was calculated using the following formula: […]
where AS, ASB, AC, and ACB are the absorbances of sample, sample blank, control, and control blank, respectively.

T1 sequence (P53341 whole entry): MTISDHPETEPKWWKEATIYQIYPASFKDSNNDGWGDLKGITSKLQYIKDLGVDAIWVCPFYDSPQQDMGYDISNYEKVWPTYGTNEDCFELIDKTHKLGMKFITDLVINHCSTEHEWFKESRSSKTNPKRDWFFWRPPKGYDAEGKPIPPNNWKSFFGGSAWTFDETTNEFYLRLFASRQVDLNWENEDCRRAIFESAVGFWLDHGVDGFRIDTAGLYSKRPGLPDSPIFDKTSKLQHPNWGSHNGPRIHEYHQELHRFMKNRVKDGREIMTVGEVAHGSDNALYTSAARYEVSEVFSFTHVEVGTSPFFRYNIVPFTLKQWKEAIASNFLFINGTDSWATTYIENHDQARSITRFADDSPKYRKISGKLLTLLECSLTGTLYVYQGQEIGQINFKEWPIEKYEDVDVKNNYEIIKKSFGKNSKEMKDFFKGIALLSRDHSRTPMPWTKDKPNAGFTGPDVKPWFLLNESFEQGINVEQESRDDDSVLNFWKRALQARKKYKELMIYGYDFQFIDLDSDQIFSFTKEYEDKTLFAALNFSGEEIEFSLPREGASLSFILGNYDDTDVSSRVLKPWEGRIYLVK

| Structure (SMILES) | IC50 [µM] |
| --- | --- |
| C[C@@H]1O[C@@H](OC[C@H]2O[C@@H](Oc3c(-c4ccc(O)c(O)c4)oc4cc(O)cc(O)c4c3=O)[C@H](O)[C@@H](O)[C@@H]2O)[C@H](O)[C@H](O)[C@H]1O [flavonoid 1, rutin] | 13.2 |
| O=c1c(O[C@@H]2O[C@H](CO)[C@@H](O)[C@H](O)[C@H]2O)c(-c2ccc(O)c(O)c2)oc2cc(O)cc(O)c12 [flavonoid 2, isoquercetin] | 117 |
